Measured values taken from ChEMBL document CHEMBL3870331, “Design, development of new synthetic methodology, and biological evaluation of substituted quinolines as new anti-tubercular leads” (Bioorg Med Chem Lett, 2016).

Tests used:
[1] = tested on: Mycobacterium tuberculosis; assay: Antimycobacterial activity against Mycobacterium tuberculosis H37Rv ATCC 27294 measured after 28 days by MABA method; format: functional; conditions: H37Rv ATCC 27294, 672 h
[2] = Cytotoxicity against HEK293T cells assessed as inhibition of cell viability at 50 ug/ml after 72 hrs by MTT assay relative to control; format: toxicity, cell-based, HEK-293T; conditions: human, read-out: INH
[3] = Therapeutic index, ratio of compound cytotoxic activity for HEK293T cells to MIC99 for Mycobacterium tuberculosis H37Rv ATCC 27294; format: cell-based, HEK-293T; conditions: human, read-out: TI

SMILES | MIC99 [1] | cytotoxicity at 72 h, 50 ug/ml [2] [%] | selectivity ratio [3]
CCOC(=O)c1c(C)nc2ccc(Cl)cc2c1-c1ccccc1 | 76.7 µM |  | 
c1ccc(-c2cc(-c3ccccc3)c3ccccc3n2)cc1 | 11.1 µM | 18.1 | 
COC(=O)c1c(C)nc2ccccc2c1-c1ccccc1 | 45.1 µM | 25.6 | 
Cc1nc2ccccc2c(-c2ccccc2)c1C(=O)c1ccccc1 | 19.3 µM | 22.1 | 
CCOC(=O)c1c(C)nc2ccccc2c1-c1ccccc1 | 0.69 µM | 25.6 | > 250
CCOC(=O)c1c(C)nc2ccccc2c1C | 109 µM |  | 
c1ccc(-c2c3c(nc4ccccc24)CCC3)cc1 | 25.5 µM | 30 | 
Cc1nc2ccccc2c(-c2ccccc2)c1C(=O)Nc1ccc(F)cc1 | 16.8 µM | 12.5 | 
O=C1CC(c2ccccc2)Cc2nc3ccccc3c(-c3ccccc3)c21 (stereo unspecified) | 35.8 µM |  | 
Cc1nc2ccccc2c(-c2ccccc2)c1C(=O)NCc1cccc(F)c1 | 33.8 µM |  | 
CC(=O)c1c(C)nc2ccccc2c1-c1ccccc1 | 47.8 µM |  | 
COc1ccc(NC(=O)c2c(C)nc3ccccc3c2-c2ccccc2)cc1 | 8.48 µM | 35.2 | 
Cc1nc2ccccc2c(-c2ccccc2)c1C(=O)Nc1ccccn1 | 73.7 µM |  | 
COC(=O)c1c(C)nc2ccc(Cl)cc2c1-c1ccccc1 | 80.2 µM |  | 
c1ccc(-c2cc(-c3cccs3)nc3ccccc23)cc1 | 21.8 µM | 25.5 | 
Cc1nc2ccccc2c(-c2ccccc2)c1C(=O)OC(C)(C)C | 1.22 µM | 13.6 | 
CC(=O)c1c(C)nc2ccc(Cl)cc2c1-c1ccccc1 | 10.6 µM | 19.9 | 
Cc1nc2ccccc2c(-c2ccccc2)c1C(=O)Nc1ccc(Cl)cc1 | 17.5 µM | 16.3 | 
Cc1nc2ccccc2c(-c2ccccc2)c1C(=O)Nc1ccccc1Br | 15 µM | 15.6 | 
Cc1nc2ccccc2c(-c2ccccc2)c1C(=O)Nc1ccccc1I | 3.36 µM | 17.9 | 
CC1(C)CC(=O)c2c(nc3ccccc3c2-c2ccccc2)C1 | 20.7 µM | 22 | 
COc1ccccc1CNC(=O)c1c(C)nc2ccccc2c1-c1ccccc1 | > 65.4 µM |  | 
O=C1CCCc2nc3ccccc3c(-c3ccccc3)c21 | 45.7 µM |  | 

SMILES | MIC99 [1] | cytotoxicity at 72 h, 50 ug/ml [2] [%] | selectivity ratio [3]
c1ccc(-c2c3c(nc4ccccc24)CCCCC3)cc1 | 45.7 µM |  | 
c1ccc(-c2cc(-c3ccco3)nc3ccccc23)cc1 | 5.75 µM | 34 | 
Cc1nc2ccccc2c(-c2ccccc2)c1C(=O)Nc1cccnc1Cl | 16.7 µM | 11.3 | 
Cc1nc2ccccc2c(-c2ccccc2)c1C(=O)Nc1ccc(Br)cc1 | 30.9 µM |  | 
Cc1nc2ccccc2c(-c2ccccc2)c1C(=O)NCc1ccccc1 | 70.9 µM |  | 
Cc1nc2ccccc2c(-c2ccccc2)c1C(=O)NCc1ccccc1Cl | 4.03 µM | 13.6 | 
Cc1nc2ccccc2c(-c2ccccc2)c1C(=O)Nc1ccccc1F | 35.1 µM |  | 
Cc1nc2ccccc2c(-c2ccccc2)c1C(=O)NCc1cccc(Cl)c1 | 64.6 µM |  | 
CC1CC(=O)c2c(nc3ccccc3c2-c2ccccc2)C1 (stereo unspecified) | 21.8 µM | 28 | 
Cc1nc2ccccc2c(-c2ccccc2)c1C(=O)NCc1ccc(C(C)(C)C)cc1 | 3.82 µM | 35.6 | 
c1ccc(-c2c3c(nc4ccccc24)CCCCCC3)cc1 | 10.9 µM | 31.1 | 
c1ccc(-c2c3c(nc4ccccc24)CCCC3)cc1 | 48.2 µM |  | 
Cc1nc2ccccc2c(-c2ccccc2)c1C(=O)Nc1ccccc1OC(F)(F)F | 29.6 µM |  | 
Cc1nc2ccccc2c(-c2ccccc2)c1C(=O)Nc1ccccc1Cl | 33.5 µM |  | 
Cc1nc2ccc(Cl)cc2c(-c2ccccc2)c1C(=O)c1ccccc1 | 8.73 µM | 26.1 | 
COc1ccccc1NC(=O)c1c(C)nc2ccccc2c1-c1ccccc1 | 67.9 µM |  | 
Cc1nc2ccccc2c(-c2ccccc2)c1C(=O)Nc1ccncc1 | 18.4 µM | 12.6 | 
Cc1ccccc1CNC(=O)c1c(C)nc2ccccc2c1-c1ccccc1 | 8.53 µM | 20.6 | 
Cc1nc2ccccc2c(-c2ccccc2)c1C(=O)Nc1ccccc1 | 9.23 µM | 25.6 | 
CC[C@@H](CO)NCCN[C@@H](CC)CO [ETHAMBUTOL] | 1.56 µg/mL |  | 
NNC(=O)c1ccncc1 [ISONIAZID] | 0.098 µg/mL |  | 
NC(=O)c1cnccn1 [PYRAZINAMIDE] | 6.25 µg/mL |  | 
CO[C@H]1/C=C/O[C@@]2(C)Oc3c(C)c(O)c4c(O)c(c(/C=N/N5CCN(C)CC5)c(O)c4c3C2=O)NC(=O)/C(C)=C\C=C\[C@H](C)[C@H](O)[C@@H](C)[C@@H](O)[C@@H](C)[C@H](OC(C)=O)[C@@H]1C [RIFAMPIN] | 0.197 µg/mL |  | 
